How the values were obtained:
Test in all cases: preservation efficacy test (PET), European Pharmacopoeia 5.1.3
Type in all cases: cell-based
Escherichia coli = conditions: for germ count EC, 2 days / germ count EC, 7 days / germ count EC, 14 days / germ count EC, 28 days: o/w emulsion (Table 53)
Staphylococcus aureus = conditions: for germ count SA, 2 days / germ count SA, 7 days / germ count SA, 14 days / germ count SA, 28 days: o/w emulsion (Table 53)
Pseudomonas aeruginosa = conditions: for count at 2 days / count at 7 days / count at 14 days / count at 28 days: PA, use concentration in label; for germ count PA, 2 days / germ count PA, 7 days / germ count PA, 14 days / germ count PA, 28 days: o/w emulsion (Table 53)
Candida albicans = conditions: for CA germ count, 2 days: 2 days after inoculation; for CA germ count, 2 days / CA germ count, 7 days / CA germ count, 14 days / CA germ count, 28 days: substance at given % in test formulation; for count at 14 days / count at 28 days: CA, use concentration in label
[1] = 2 days after inoculation, substance at given % in test formulation
[2] = 7 days after inoculation, substance at given % in test formulation
[3] = 14 days after inoculation, substance at given % in test formulation
[4] = 28 days after inoculation, substance at given % in test formulation
[5] = EC, 7 days after inoculation, use concentration in label
[6] = EC, 14 days after inoculation, use concentration in label
[7] = EC, 28 days after inoculation, use concentration in label
[8] = SA, 7 days after inoculation, use concentration in label
[9] = SA, 14 days after inoculation, use concentration in label
[10] = SA, 28 days after inoculation, use concentration in label
[11] = in wet wipes, 28 days after inoculation
[12] = in wet wipes, 2 days after inoculation
[13] = in wet wipes, 7 days after inoculation
[14] = in wet wipes, 14 days after inoculation
[15] = 28 days after inoculation, o/w emulsion (Table 53)

CCCCCCCC(=O)OCC(O)CO (centres unmarked) [0.1% glyceryl caprylate]
EC germ count, 2 days (Escherichia coli; [1]): 1 | EC germ count, 7 days (Escherichia coli; [2]): 1 | EC germ count, 14 days (Escherichia coli; [3]): 1 | EC germ count, 28 days (Escherichia coli; [4]): 1 | SA germ count, 2 days (Staphylococcus aureus; [1]): 15.000 | SA germ count, 7 days (Staphylococcus aureus; [2]): 1 | SA germ count, 14 days (Staphylococcus aureus; [3]): 1 | SA germ count, 28 days (Staphylococcus aureus; [4]): 1 | PA germ count, 2 days (Pseudomonas aeruginosa; [1]): 1.800 | PA germ count, 7 days (Pseudomonas aeruginosa; [2]): 690 | PA germ count, 14 days (Pseudomonas aeruginosa; [3]): 2.400 | PA germ count, 28 days (Pseudomonas aeruginosa; [4]): 39.000 | CA germ count, 2 days (Candida albicans): 990.000 | CA germ count, 7 days (Candida albicans; 7 days after inoculation): 690.000 | CA germ count, 14 days (Candida albicans; 14 days after inoculation): 280.000 | CA germ count, 28 days (Candida albicans; 28 days after inoculation): 220.000

CCCCCC(O)CO (centres unmarked) [0.3% 1.2-heptanediol]
count at 2 days (Escherichia coli; EC, 2 days after inoculation, use concentration in label): 130.000 | count at 7 days (Escherichia coli; [5]): 2.400 | count at 14 days (Escherichia coli; [6]): 1 | count at 28 days (Escherichia coli; [7]): 1 | count at 2 days (Staphylococcus aureus; SA, 2 days after inoculation, use concentration in label): 16.000 | count at 7 days (Staphylococcus aureus; [8]): 1 | count at 14 days (Staphylococcus aureus; [9]): 1 | count at 28 days (Staphylococcus aureus; [10]): 1 | count at 2 days (Pseudomonas aeruginosa; 2 days after inoculation): 1 | count at 7 days (Pseudomonas aeruginosa; 7 days after inoculation): 1 | count at 14 days (Pseudomonas aeruginosa; 14 days after inoculation): 1 | count at 28 days (Pseudomonas aeruginosa; 28 days after inoculation): 1 | count at 14 days (Candida albicans; 14 days after inoculation): 260.000 | count at 28 days (Candida albicans; 28 days after inoculation): 150.000

CCCCCCC(O)CO (centres unmarked) [0.1% 1,2-octanediol]
EC germ count, 28 days (Escherichia coli; [11]): 2.300 | SA germ count, 2 days (Staphylococcus aureus; [12]): 425 | SA germ count, 7 days (Staphylococcus aureus; [13]): 50 | SA germ count, 14 days (Staphylococcus aureus; [14]): 50 | SA germ count, 28 days (Staphylococcus aureus; [11]): 50 | PA germ count, 14 days (Pseudomonas aeruginosa; [14]): 750.000 | PA germ count, 28 days (Pseudomonas aeruginosa; [11]): 350.000

CCCCC(O)C(C)O (centres unmarked) [0.4% 2,3 Heptandiol]
count at 7 days (Escherichia coli; [5]): 1 | count at 14 days (Escherichia coli; [6]): 1 | count at 28 days (Escherichia coli; [7]): 1 | count at 7 days (Staphylococcus aureus; [8]): 1 | count at 14 days (Staphylococcus aureus; [9]): 1 | count at 28 days (Staphylococcus aureus; [10]): 1 | count at 2 days (Pseudomonas aeruginosa; 2 days after inoculation): 1 | count at 7 days (Pseudomonas aeruginosa; 7 days after inoculation): 1 | count at 14 days (Pseudomonas aeruginosa; 14 days after inoculation): 1 | count at 28 days (Pseudomonas aeruginosa; 28 days after inoculation): 1 | count at 14 days (Candida albicans; 14 days after inoculation): 39.000 | count at 28 days (Candida albicans; 28 days after inoculation): 76.000

CCCCCCC(O)C(C)O (centres unmarked) [0.2% 2,3 Nonanediol]
germ count EC, 2 days (Escherichia coli; 2 days after inoculation): 860.000 | germ count EC, 7 days (Escherichia coli; 7 days after inoculation): 230.000 | germ count EC, 14 days (Escherichia coli; 14 days after inoculation): 760 | germ count EC, 28 days (Escherichia coli; 28 days after inoculation): 1 | germ count SA, 2 days (Staphylococcus aureus; 2 days after inoculation): 880 | germ count SA, 7 days (Staphylococcus aureus; 7 days after inoculation): 1 | germ count SA, 14 days (Staphylococcus aureus; 14 days after inoculation): 1 | germ count SA, 28 days (Staphylococcus aureus; 28 days after inoculation): 1 | germ count PA, 2 days (Pseudomonas aeruginosa; 2 days after inoculation): 1 | germ count PA, 7 days (Pseudomonas aeruginosa; 7 days after inoculation): 1 | germ count PA, 14 days (Pseudomonas aeruginosa; 14 days after inoculation): 1 | germ count PA, 28 days (Pseudomonas aeruginosa; 28 days after inoculation): 1 | germ count CA, 7 days (Candida albicans; 7 days after inoculation, o/w emulsion (Table 53)): 440.000 | germ count CA, 14 days (Candida albicans; 14 days after inoculation, o/w emulsion (Table 53)): 160.000 | germ count CA, 28 days (Candida albicans; [15]): 3.800

CCCCC(CC)COCC(O)CO (centres unmarked) [Ethylhexlglycerin, Ethylhexylglycerin, reference compound]
germ count EC, 2 days (Escherichia coli; 2 days after inoculation): 10.000 | germ count EC, 7 days (Escherichia coli; 7 days after inoculation): 82 | germ count EC, 14 days (Escherichia coli; 14 days after inoculation): 1 | germ count EC, 28 days (Escherichia coli; 28 days after inoculation): 1 | number of microorganisms, 2 days (Escherichia coli; PET, Escherichia coli (EC), 2 days after inoculation): 10.000 | number of microorganisms, 7 days (Escherichia coli; PET, Escherichia coli (EC), 7 days after inoculation): 82 | number of microorganisms, 14 days (Escherichia coli; PET, Escherichia coli (EC), 14 days after inoculation): 1 | number of microorganisms, 28 days (Escherichia coli; PET, Escherichia coli (EC), 28 days after inoculation): 1 | germ count SA, 2 days (Staphylococcus aureus; 2 days after inoculation): 240.000 | germ count SA, 7 days (Staphylococcus aureus; 7 days after inoculation): 36 | germ count SA, 14 days (Staphylococcus aureus; 14 days after inoculation): 1 | germ count SA, 28 days (Staphylococcus aureus; 28 days after inoculation): 1 | number of microorganisms, 2 days (Staphylococcus aureus; PET, Staphylococcus aureus (SA), 2 days after inoculation): 240.000 | number of microorganisms, 7 days (Staphylococcus aureus; PET, Staphylococcus aureus (SA), 7 days after inoculation): 36 | number of microorganisms, 14 days (Staphylococcus aureus; PET, Staphylococcus aureus (SA), 14 days after inoculation): 1 | number of microorganisms, 28 days (Staphylococcus aureus; PET, Staphylococcus aureus (SA), 28 days after inoculation): 1 | germ count PA, 2 days (Pseudomonas aeruginosa; 2 days after inoculation): 1 | germ count PA, 7 days (Pseudomonas aeruginosa; 7 days after inoculation): 1 | germ count PA, 14 days (Pseudomonas aeruginosa; 14 days after inoculation): 1 | germ count PA, 28 days (Pseudomonas aeruginosa; 28 days after inoculation): 1 | number of microorganisms, 2 days (Pseudomonas aeruginosa; PET, Pseudomonas aeruginosa (PA), 2 days after inoculation): 1 | number of microorganisms, 7 days (Pseudomonas aeruginosa; PET, Pseudomonas aeruginosa (PA), 7 days after inoculation): 1 | number of microorganisms, 14 days (Pseudomonas aeruginosa; PET, Pseudomonas aeruginosa (PA), 14 days after inoculation): 1 | number of microorganisms, 28 days (Pseudomonas aeruginosa; PET, Pseudomonas aeruginosa (PA), 28 days after inoculation): 1 | germ count CA, 28 days (Candida albicans; [15]): 950.000 | number of microorganisms, 28 days (Candida albicans; PET, Candida albicans (CA), 28 days after inoculation): 950.000

CCCCCCCC(=O)OCC(O)CO (centres unmarked) [0.2% glyceryl caprylate]
EC germ count, 2 days (Escherichia coli; [1]): 1 | EC germ count, 7 days (Escherichia coli; [2]): 1 | EC germ count, 14 days (Escherichia coli; [3]): 1 | EC germ count, 28 days (Escherichia coli; [4]): 1 | SA germ count, 2 days (Staphylococcus aureus; [1]): 1 | SA germ count, 7 days (Staphylococcus aureus; [2]): 1 | SA germ count, 14 days (Staphylococcus aureus; [3]): 1 | SA germ count, 28 days (Staphylococcus aureus; [4]): 1 | PA germ count, 2 days (Pseudomonas aeruginosa; [1]): 1 | PA germ count, 7 days (Pseudomonas aeruginosa; [2]): 1 | PA germ count, 14 days (Pseudomonas aeruginosa; [3]): 1 | PA germ count, 28 days (Pseudomonas aeruginosa; [4]): 1 | CA germ count, 2 days (Candida albicans): 12.000 | CA germ count, 7 days (Candida albicans; 7 days after inoculation): 260 | CA germ count, 14 days (Candida albicans; 14 days after inoculation): 1 | CA germ count, 28 days (Candida albicans; 28 days after inoculation): 1

CCCCCC(O)C(C)O (centres unmarked) [0.1% 2,3-Octanediol]
EC germ count, 2 days (Escherichia coli; [1]): 690.000 | EC germ count, 7 days (Escherichia coli; [2]): 11.000 | EC germ count, 14 days (Escherichia coli; [3]): 1.200 | EC germ count, 28 days (Escherichia coli; [4]): 1 | SA germ count, 7 days (Staphylococcus aureus; [2]): 9.500 | SA germ count, 14 days (Staphylococcus aureus; [3]): 1 | SA germ count, 28 days (Staphylococcus aureus; [4]): 1 | PA germ count, 14 days (Pseudomonas aeruginosa; [3]): 1 | PA germ count, 28 days (Pseudomonas aeruginosa; [4]): 1

CCCCCC(O)CO (centres unmarked) [0.2% 1.2-heptanediol]
EC germ count, 2 days (Escherichia coli; [1]): 780.000 | EC germ count, 7 days (Escherichia coli; [2]): 83.000 | EC germ count, 14 days (Escherichia coli; [3]): 11.000 | EC germ count, 28 days (Escherichia coli; [4]): 180 | SA germ count, 2 days (Staphylococcus aureus; [1]): 12.000 | SA germ count, 7 days (Staphylococcus aureus; [2]): 1 | CA germ count, 28 days (Candida albicans; 28 days after inoculation): 310.000

CCCCCC(O)C(C)O (centres unmarked) [0.1% 2,3-octanediol]
EC germ count, 14 days (Escherichia coli; [14]): 850.000 | EC germ count, 28 days (Escherichia coli; [11]): 1.600 | SA germ count, 2 days (Staphylococcus aureus; [12]): 50 | SA germ count, 7 days (Staphylococcus aureus; [13]): 50 | SA germ count, 14 days (Staphylococcus aureus; [14]): 50 | SA germ count, 28 days (Staphylococcus aureus; [11]): 50 | PA germ count, 7 days (Pseudomonas aeruginosa; [13]): 630.000 | PA germ count, 14 days (Pseudomonas aeruginosa; [14]): 310.000 | PA germ count, 28 days (Pseudomonas aeruginosa; [11]): 27.000

Reference: US20230293407A1, “Compositions Comprising (Bio)-Alkanediols with Antimicrobials for Product Protection” (Symrise AG, priority 2020, published 2023)
